Consider 4 compounds from PubChem BioAssay (NCI).

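Values below derive from 48-hour exposures of cells grown in 96-well plates, with endpoints linearly interpolated between the two concentrations bracketing the appropriate inhibition level. TGI: total growth inhibition.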 Bounds are passed on as bounds.

The test system of the first test is HCC-2998 colon. As to the kind of experiment: NCI-60 cell line screen, 48 h.
For `O=C(/C=C/c1ccsc1)c1ccsc1`, the TGI was 35.6 µM.

The test system of a further test is M14 melanoma. As to the kind of experiment: NCI-60 cell line screen, 48 h.
`COc1cc(C2CC(C)(Nc3ccccc3)Oc3cc4c(cc32)OCO4)cc(OC)c1OC` (configuration not stated): the TGI is over 63.1 µM.
Same read-out and setting: the figure for `COC(=O)c1c2c(cc3c1CC1(C3)Cc3cc4c(c(C(=O)OC)c3C1)CCCC4)CCCC2` is over 100 µM; for `O=C(/C=C/c1ccsc1)c1ccsc1` it is 66.4 µM.

The subject of a further test is HOP-62 NSCLC. As to the kind of experiment: NCI-60 cell line screen, 48 h.
For `COc1cc(C2CC(C)(Nc3ccccc3)Oc3cc4c(cc32)OCO4)cc(OC)c1OC` (configuration not stated), the TGI was over 55.1 µM.
`COC(=O)c1c2c(cc3c1CC1(C3)Cc3cc4c(c(C(=O)OC)c3C1)CCCC4)CCCC2` gave a TGI of over 100 µM.
Same read-out and setting: under `O=C(/C=C/c1ccsc1)c1ccsc1` stands over 100 µM.

The test system of a further test is HOP-92 NSCLC. As to the kind of experiment: NCI-60 cell line screen, 48 h.
The compound `COc1cc(C2CC(C)(Nc3ccccc3)Oc3cc4c(cc32)OCO4)cc(OC)c1OC` (configuration not stated) gave a TGI of over 100 µM.
The compound `COC(=O)c1c2c(cc3c1CC1(C3)Cc3cc4c(c(C(=O)OC)c3C1)CCCC4)CCCC2` showed a TGI of over 100 µM.

Another test relates to EKVX NSCLC. As to the kind of experiment: NCI-60 cell line screen, 48 h.
In the case of `CC1(C)[C@@H]2CC[C@@]1(C)[C@@H]1O[C@@H](O[C@@H](CN)c3cc(Cl)c(OCc4ccccc4)c(OCc4ccccc4)c3)C[C@H]21`, the TGI worked out at 0.301 µM.
Same read-out and setting: the figure for `COc1cc(C2CC(C)(Nc3ccccc3)Oc3cc4c(cc32)OCO4)cc(OC)c1OC` (configuration not stated) is over 100 µM.
The same measure, in the same setting: the figure for `COC(=O)c1c2c(cc3c1CC1(C3)Cc3cc4c(c(C(=O)OC)c3C1)CCCC4)CCCC2` is over 100 µM; for `O=C(/C=C/c1ccsc1)c1ccsc1` it is over 100 µM.

Another test relates to DU-145 prostate. As to the kind of experiment: NCI-60 cell line screen, 48 h.
For `CC1(C)[C@@H]2CC[C@@]1(C)[C@@H]1O[C@@H](O[C@@H](CN)c3cc(Cl)c(OCc4ccccc4)c(OCc4ccccc4)c3)C[C@H]21`, the TGI came out at 0.332 µM.
On the same count and under the same terms, under `COc1cc(C2CC(C)(Nc3ccccc3)Oc3cc4c(cc32)OCO4)cc(OC)c1OC` (configuration not stated) stands 6.13 µM; under `O=C(/C=C/c1ccsc1)c1ccsc1`, over 100 µM.

In a further test the test system is MDA-MB-435. As to the kind of experiment: NCI-60 cell line screen, 48 h.
`CC1(C)[C@@H]2CC[C@@]1(C)[C@@H]1O[C@@H](O[C@@H](CN)c3cc(Cl)c(OCc4ccccc4)c(OCc4ccccc4)c3)C[C@H]21` showed a TGI of 0.297 µM.
Same read-out and setting: the figure for `COc1cc(C2CC(C)(Nc3ccccc3)Oc3cc4c(cc32)OCO4)cc(OC)c1OC` (configuration not stated) is 0.0688 µM.
Still for that read-out and setting: under `COC(=O)c1c2c(cc3c1CC1(C3)Cc3cc4c(c(C(=O)OC)c3C1)CCCC4)CCCC2` stands over 100 µM.
The same measure, in the same setting: the figure for `O=C(/C=C/c1ccsc1)c1ccsc1` is 42.4 µM.

The subject of the next test is ACHN renal. As to the kind of experiment: NCI-60 cell line screen, 48 h.
On to `CC1(C)[C@@H]2CC[C@@]1(C)[C@@H]1O[C@@H](O[C@@H](CN)c3cc(Cl)c(OCc4ccccc4)c(OCc4ccccc4)c3)C[C@H]21`, for which the TGI came out at 0.306 µM.
Consider `COc1cc(C2CC(C)(Nc3ccccc3)Oc3cc4c(cc32)OCO4)cc(OC)c1OC` (configuration not stated), for which the TGI is over 90.7 µM.
Still for that read-out and setting: the figure for `COC(=O)c1c2c(cc3c1CC1(C3)Cc3cc4c(c(C(=O)OC)c3C1)CCCC4)CCCC2` is over 100 µM; for `O=C(/C=C/c1ccsc1)c1ccsc1` it is 42.6 µM.

The subject of another test is UO-31 renal. As to the kind of experiment: NCI-60 cell line screen, 48 h.
`COc1cc(C2CC(C)(Nc3ccccc3)Oc3cc4c(cc32)OCO4)cc(OC)c1OC` (configuration not stated) gave a TGI of 34.2 µM.
On the same count and under the same terms, the figure for `COC(=O)c1c2c(cc3c1CC1(C3)Cc3cc4c(c(C(=O)OC)c3C1)CCCC4)CCCC2` is 1.23 µM; for `O=C(/C=C/c1ccsc1)c1ccsc1` it is 28.7 µM.

In another test the test system is A549 NSCLC. As to the kind of experiment: NCI-60 cell line screen, 48 h.
For the compound `COc1cc(C2CC(C)(Nc3ccccc3)Oc3cc4c(cc32)OCO4)cc(OC)c1OC` (configuration not stated), the TGI was over 100 µM.
The same measure, in the same setting: the figure for `COC(=O)c1c2c(cc3c1CC1(C3)Cc3cc4c(c(C(=O)OC)c3C1)CCCC4)CCCC2` is over 100 µM; for `O=C(/C=C/c1ccsc1)c1ccsc1` it is over 100 µM.

Another test relates to HL-60(TB) leukemia. As to the kind of experiment: NCI-60 cell line screen, 48 h.
`CC1(C)[C@@H]2CC[C@@]1(C)[C@@H]1O[C@@H](O[C@@H](CN)c3cc(Cl)c(OCc4ccccc4)c(OCc4ccccc4)c3)C[C@H]21` came in with a TGI of 0.373 µM.
The same measure, in the same setting: under `COC(=O)c1c2c(cc3c1CC1(C3)Cc3cc4c(c(C(=O)OC)c3C1)CCCC4)CCCC2` stands 74.5 µM.
On the same count and under the same terms, under `O=C(/C=C/c1ccsc1)c1ccsc1` stands 40.6 µM.

A further test has as its system HCT-15 colon. As to the kind of experiment: NCI-60 cell line screen, 48 h.
Compound `COc1cc(C2CC(C)(Nc3ccccc3)Oc3cc4c(cc32)OCO4)cc(OC)c1OC` (configuration not stated) displayed a TGI of over 100 µM.
Still for that read-out and setting: under `COC(=O)c1c2c(cc3c1CC1(C3)Cc3cc4c(c(C(=O)OC)c3C1)CCCC4)CCCC2` stands over 100 µM; under `O=C(/C=C/c1ccsc1)c1ccsc1`, 41.5 µM.

For the next test, the system named is TK-10 renal. As to the kind of experiment: NCI-60 cell line screen, 48 h.
With `COc1cc(C2CC(C)(Nc3ccccc3)Oc3cc4c(cc32)OCO4)cc(OC)c1OC` (configuration not stated), the TGI is over 100 µM.
On the same count and under the same terms, the figure for `COC(=O)c1c2c(cc3c1CC1(C3)Cc3cc4c(c(C(=O)OC)c3C1)CCCC4)CCCC2` is over 100 µM; for `O=C(/C=C/c1ccsc1)c1ccsc1` it is 74.4 µM.

For a further test, the system named is CCRF-CEM leukemia. As to the kind of experiment: NCI-60 cell line screen, 48 h.
`CC1(C)[C@@H]2CC[C@@]1(C)[C@@H]1O[C@@H](O[C@@H](CN)c3cc(Cl)c(OCc4ccccc4)c(OCc4ccccc4)c3)C[C@H]21` yielded a TGI of 0.364 µM.
For the compound `COc1cc(C2CC(C)(Nc3ccccc3)Oc3cc4c(cc32)OCO4)cc(OC)c1OC` (configuration not stated), the TGI was determined as 3.72 µM.
Still for that read-out and setting: under `COC(=O)c1c2c(cc3c1CC1(C3)Cc3cc4c(c(C(=O)OC)c3C1)CCCC4)CCCC2` stands 96 µM.
On the same count and under the same terms, the figure for `O=C(/C=C/c1ccsc1)c1ccsc1` is 45.2 µM.

Another test relates to OVCAR-3 ovarian. As to the kind of experiment: NCI-60 cell line screen, 48 h.
`CC1(C)[C@@H]2CC[C@@]1(C)[C@@H]1O[C@@H](O[C@@H](CN)c3cc(Cl)c(OCc4ccccc4)c(OCc4ccccc4)c3)C[C@H]21` returned a TGI of 0.306 µM.
Same read-out and setting: under `COc1cc(C2CC(C)(Nc3ccccc3)Oc3cc4c(cc32)OCO4)cc(OC)c1OC` (configuration not stated) stands 3.52 µM.
Same read-out and setting: under `COC(=O)c1c2c(cc3c1CC1(C3)Cc3cc4c(c(C(=O)OC)c3C1)CCCC4)CCCC2` stands over 100 µM.

The next test relates to NCI-H23 lung. As to the kind of experiment: NCI-60 cell line screen, 48 h.
As for `COc1cc(C2CC(C)(Nc3ccccc3)Oc3cc4c(cc32)OCO4)cc(OC)c1OC` (configuration not stated), the TGI was over 33.6 µM.
